These results are taken from patent publication US6008245A, “Sulfonamide-substituted benzopyran derivatives, processes for their preparation, their use as a medicament, and pharmaceutical preparations comprising them” (priority 1997, dated 1999).

One assay has as its system K+ (ATP) channel. The following applies: known compounds; cited from earlier work.
Another assay has as its target T1, human IsK protein (UniProt P15382+P70057).
T1 construct: expressed in transfected cells; host or cells: Xenopus laevis oocytes injected with in vitro synthesized IsK RNA
Description: cell-based. The following applies: human IsK expressed in Xenopus oocytes; voltage jumps to -10 mV lasting 15 s; pH 7.5; room temperature; Hill equation.

For another assay, the system named is IKs. The following applies: cited from earlier work.
A further assay deals with IKr. To be noted: class III antiarrhythmics; cited from earlier work.

Some results are limits rather than exact numbers.

For `CC1(C)Oc2ccc(C#N)cc2[C@@H](N2CCCC2=O)[C@@H]1O` (relative stereo) [cromakalim], in the assay with K+ (ATP) channel, the “action on ATP-sensitive K+ channels” value is given as “openers of ATP-sensitive K^+ channels”.

By IC50 is commonly meant the concentration that inhibits the measured activity by half. At human IsK protein, `CN(C1=CC(C)(C)Oc2ccc(OCc3ccccc3)cc21)S(C)(=O)=O` [Example 4, N-(6-Benzyloxy-2,2-dimethyl-2H-chromen-4-yl)-N-methyl-methanesulfonamide] returned an IC50 of 1600 nM.

Consider `CCCCOc1ccc2c(c1)[C@@H](N(C)S(C)(=O)=O)[C@H](O)C(C)(C)O2` [Example 16, (3S, 4R)-(-)-N-(6-Butoxy-3-hydroxy-2,2-dimethylchroman-4-yl)-N-methyl-methanesulfonamide], for which the midpoint of inhibition against human IsK protein, the IC50, lay at 400 nM.

Take `CCCCOc1ccc2c(c1)[C@@H](N(C)S(C)(=O)=O)[C@H](OC(C)=O)C(C)(C)O2` (racemic) [Example 6, (±)-trans-N-(3-Acetoxy-6-butoxy-2,2-dimethylchroman-4-yl)-N-methyl-methanesulfonamide]: on human IsK protein, the 50% inhibitory concentration (IC50) is above 10000 nM.

For the molecule `CO[C@H]1[C@H](N(C)S(C)(=O)=O)c2cc(OCc3ccccc3)ccc2OC1(C)C` (racemic) [Example 3, (±)-trans-N-(6-Benzyloxy-3-methoxy-2,2-dimethylchroman-4-yl)-N-methyl-methanesulfonamide], at human IsK protein, the IC50 was 6500 nM.

In turn, `CCCOc1ccc2c(c1)C(N(C)S(C)(=O)=O)=CC(C)(C)O2` [Example 9, N-(6-Propoxy-2,2-dimethyl-2H-chromen-4-yl)-N-methyl-methanesulfonamide] came in with a half-inhibitory concentration (IC50) on human IsK protein of 2600 nM. This IC50 is about 2.5-fold lower than that of the molecule before.

Molecule `CCCCOc1ccc2c(c1)[C@@H](N(CC)S(C)(=O)=O)[C@H](O)C(C)(C)O2` (racemic) [Example 14, (±)-trans-N-(6-Butoxy-3-hydroxy-2,2-dimethylchroman-4-yl)-N-ethyl-methanesulfonamide] showed an IC50 on human IsK protein of 200 nM.

Consider `COC(=O)CN([C@@H]1c2cc(OCc3ccccc3)ccc2OC(C)(C)[C@H]1O)S(C)(=O)=O` (racemic) [Example 12, Methyl (±)-trans-[(6-benzyloxy-3-hydroxy-2,2-dimethylchroman-4-yl)-methanesulfonylamino]acetate], for which the half-maximal inhibitory concentration (IC50) on human IsK protein worked out at 800 nM.

For the molecule `CCS(=O)(=O)N(C)[C@H]1c2cc(OCCCC(F)(F)F)ccc2OC(C)(C)[C@@H]1O` [Example 18, (3R, 4S)-(+)-N-[-3-Hydroxy-2,2-dimethyl-6-(4,4,4-trifluorobutoxy)chroman-4-yl]-N-methyl-ethanesulfonamide], on human IsK protein, the 50% inhibitory concentration (IC50) is 100 nM.

`CCS(=O)(=O)N(C)[C@@H]1c2cc(OCc3ccccc3)ccc2OC(C)(C)[C@H]1O` [Example 17, (3S, 4R)-(-)-N-(6-Benzyloxy-3-hydroxy-2,2-dimethylchroman-4-yl)-N-methyl-ethanesulfonamide] came in with an IC50 on human IsK protein of 400 nM. Compared with the last molecule, the IC50 is about 4-fold higher.

For the molecule `CCCCN([C@@H]1c2cc(OCc3ccccc3)ccc2OC(C)(C)[C@H]1O)S(C)(=O)=O` (racemic) [Example 10, (±)-trans-N-(6-Benzyloxy-3-hydroxy-2,2-dimethylchroman-4-yl)-N-butyl-methanesulfonamide], the concentration for half-maximal inhibition (IC50) against human IsK protein was determined as 400 nM.

Regarding `CN1CCN(CCCCN2C(=O)CN(/N=C/c3ccc(-c4ccc(Cl)cc4)o3)C2=O)CC1` [azimilide], in the assay on IKs, the “blocking action on the IKs” value is “blocking action on the IKs”.

As for `CC(=O)O[C@H]1[C@H](N(C)S(C)(=O)=O)c2cc(OCCCC(F)(F)F)ccc2OC1(C)C` (racemic) [Example 21, (±)-trans-N-[3-Acetoxy-6-(4,4,4-trifluorobutoxy)-2,2-dimethylchroman-4-yl]-N-methyl-methanesulfonamide], the half-inhibitory concentration (IC50) on human IsK protein was around 10000 nM.

On human IsK protein, `CN(C1=CC(C)(C)Oc2ccc(OCCCC(F)(F)F)cc21)S(C)(=O)=O` [Example 22, N-[6-(4,4,4-Trifluorobutoxy)-2,2-dimethyl-2H-chromen-4-yl]-N-methyl-methanesulfonamide] had a concentration for half-maximal inhibition (IC50) of 600 nM.

Take `CC1(C)Oc2ccc(OCCCC(F)(F)F)cc2[C@H](NS(C)(=O)=O)[C@H]1O` [Example 23a, (3R,4S)-N-[3-Hydroxy-2,2-dimethyl-6-(4,4,4-trifluoro-butoxy)-chroman-4-yl]-methanesulfonamide]: on human IsK protein, the IC50 was 1700 nM.

Consider `CCCCOc1ccc2c(c1)C(N(CC)S(C)(=O)=O)=CC(C)(C)O2` [Example 15, N-(6-Butoxy-2,2-dimethyl-2H-chromen-4-yl)-N-ethyl-methanesulfonamide], for which it took 1300 nM to reach half-maximal inhibition against human IsK protein (IC50).

In turn, `CCCCN(C1=CC(C)(C)Oc2ccc(OCc3ccccc3)cc21)S(C)(=O)=O` [Example 11] displayed a half-maximal inhibitory concentration (IC50) against human IsK protein of 1600 nM.

In the case of `CC(C)NC[C@@H](O)c1ccc(NS(C)(=O)=O)cc1` [d-sotalol], the IKr block result in the assay with IKr is reported as “block IKr predominantly or exclusively”.

For the molecule `CC(=O)O[C@H]1[C@H](N(C)S(C)(=O)=O)c2cc(OCc3ccccc3)ccc2OC1(C)C` (racemic) [Example 2, (±)-trans-N-(6-Benzyloxy-3-acetoxy-2,2-dimethylchroman-4-yl)-N-methyl-methanesulfonamide], at human IsK protein, the IC50 worked out at 13000 nM.

Regarding `CN([C@@H]1c2cc(OCc3ccccc3)ccc2OC(C)(C)[C@H]1O)S(C)(=O)=O` (racemic) [Example 1, (±)-trans-N-(6-Benzyloxy-3-hydroxy-2,2-dimethylchroman-4-yl)-N-methylmethanesulfonamide], the half-maximal inhibitory concentration (IC50) on human IsK protein came out at 200 nM.

As to `CCCCOc1ccc2c(c1)C(N(C)S(C)(=O)=O)=CC(C)(C)O2` [Example 7, N-(6-Butoxy-2,2-dimethyl-2H-chromen-4-yl)-N-methyl-methanesulfonamide], the 50% inhibitory concentration (IC50) against human IsK protein turned out to be 1600 nM.

On human IsK protein, `CCCCOc1ccc2c(c1)[C@@H](N(C)S(C)(=O)=O)[C@H](O)C(C)(C)O2` (racemic) [Example 5, (±)-trans-N-(6-Butoxy-3-hydroxy-2,2-dimethylchroman-4-yl)-N-methyl-methanesulfonamide] returned an IC50 of 250 nM.
